Laboratory results taken from the supplement of paper PMC13380429.

Tests used:
Settings in all cases: 72 h
HepG2 [1] = experiment: cell viability relative to DMSO; higher = less toxic
Vero E6 [2] = experiment: as above
U2OS [3] = experiment: as above
Calu-3 [4] = experiment: as above
Caco-2 [5] = experiment: as above
HepG2 [6] = experiment: relative viability EC50 (midpoint between 100% and the lowest measured viability); higher = less toxic
Vero E6 [7] = experiment: as above
U2OS [8] = experiment: as above
Calu-3 [9] = experiment: as above
Caco-2 [10] = experiment: as above
HepG2 [11] = experiment: drug sensitivity score (DSS) for viability; higher = more toxic; extreme values may be limits of the assay
Vero E6 [12] = experiment: as above
U2OS [13] = experiment: as above
Calu-3 [14] = experiment: as above
Caco-2 [15] = experiment: as above

| SMILES | cell viability (HepG2 [1]; 1 nM) | cell viability (HepG2 [1]; 10 nM) | cell viability (HepG2 [1]; 100 nM) | cell viability (HepG2 [1]; 1000 nM) | cell viability (HepG2 [1]; 10000 nM) | cell viability (Vero E6 [2]; 1 nM) | cell viability (Vero E6 [2]; 10 nM) | cell viability (Vero E6 [2]; 100 nM) | cell viability (Vero E6 [2]; 1000 nM) | cell viability (Vero E6 [2]; 10000 nM) | cell viability (U2OS [3]; 1 nM) | cell viability (U2OS [3]; 10 nM) | cell viability (U2OS [3]; 100 nM) | cell viability (U2OS [3]; 1000 nM) | cell viability (U2OS [3]; 10000 nM) | cell viability (Calu-3 [4]; 1 nM) | cell viability (Calu-3 [4]; 10 nM) | cell viability (Calu-3 [4]; 100 nM) | cell viability (Calu-3 [4]; 1000 nM) | cell viability (Calu-3 [4]; 10000 nM) | cell viability (Caco-2 [5]; 1 nM) | cell viability (Caco-2 [5]; 10 nM) | cell viability (Caco-2 [5]; 100 nM) | cell viability (Caco-2 [5]; 1000 nM) | cell viability (Caco-2 [5]; 10000 nM) | relative viability EC50 (HepG2 [6]) | relative viability EC50 (Vero E6 [7]) | relative viability EC50 (U2OS [8]) | relative viability EC50 (Calu-3 [9]) | relative viability EC50 (Caco-2 [10]) | drug sensitivity score (HepG2 [11]) | drug sensitivity score (Vero E6 [12]) | drug sensitivity score (U2OS [13]) | drug sensitivity score (Calu-3 [14]) | drug sensitivity score (Caco-2 [15]) |
| --- | --- | --- | --- | --- | --- | --- | --- | --- | --- | --- | --- | --- | --- | --- | --- | --- | --- | --- | --- | --- | --- | --- | --- | --- | --- | --- | --- | --- | --- | --- | --- | --- | --- | --- | --- |
| COc1cc(-n2c(=S)[nH]c3ccccc3c2=O)c(Cl)cc1Cl [mdivi-1] | 94.8% | 94.3% | 99.9% | 95.7% | 88.3% | 97.8% | 106% | 95.1% | 97.3% | 93% | 99.6% | 104% | 101% | 99.7% | 92.4% | 95.2% | 97.8% | 96.2% | 98.6% | 92.1% | 103% | 98.1% | 94.2% | 94.4% | 86.6% | > 10 µM | > 10 µM | > 10 µM | > 10 µM | > 10 µM | 0 | 0 | 0 | 0 | 0.1 |
| CNC[C@H](O)[C@@H](O)[C@H](O)[C@H](O)CO [meglumine] | 89.7% | 93.5% | 81.5% | 98.1% | 85% | 88.3% | 91.3% | 93.9% | 99.5% | 96.5% | 98.3% | 92.8% | 104% | 90.8% | 99% | 108% | 95.7% | 99.4% | 88.2% | 97.7% | 92.6% | 76.1% | 95.3% | 104% | 95.1% | > 10 µM | > 10 µM | > 10 µM | > 10 µM | > 10 µM | 0 | 0 | 0 | 0 | 0 |
| C1N2CN3CN1CN(C2)C3 [methenamine] | 98.4% | 96.2% | 102% | 105% | 106% | 98.7% | 92.3% | 93.1% | 94.6% | 102% | 89.9% | 97.5% | 100% | 98.2% | 99.7% | 97.1% | 96.4% | 97.2% | 102% | 93.5% | 94.6% | 99.8% | 96.5% | 104% | 106% | > 10 µM | > 10 µM | > 10 µM | > 10 µM | > 10 µM | 0 | 0 | 0 | 0 | 0 |
| CCOC(=O)[C@@](C)(N)Cc1ccc(O)c(O)c1 [methyldopate] | 95.7% | 96.4% | 97.4% | 97.4% | 90.9% | 99.6% | 98.4% | 97.4% | 107% | 97.7% | 103% | 98.4% | 101% | 102% | 89.3% | 91.4% | 97.1% | 101% | 102% | 92.5% | 103% | 101% | 100% | 103% | 88.4% | > 10 µM | > 10 µM | > 10 µM | > 10 µM | > 10 µM | 0 | 0 | 0 | 0 | 0 |
| CCC(=O)O[C@@H]1CC(=O)O[C@H](C)C/C=C/C=C/[C@H](OC(C)=O)[C@H](C)C[C@H](CC=O)[C@H](O[C@@H]2O[C@H](C)[C@@H](O[C@H]3C[C@@](C)(OC(C)=O)[C@@H](OC(=O)CC)[C@H](C)O3)[C@H](N(C)C)[C@H]2O)[C@H]1OC [miocamycin] | 96.2% | 90.8% | 103% | 90.6% | 90% | 97.5% | 96.8% | 96.4% | 99.1% | 96.7% | 96.9% | 98.7% | 97.9% | 99.7% | 92.4% | 91.1% | 104% | 85.1% | 92.8% | 82.4% | 98.4% | 102% | 96.5% | 96.5% | 85.6% | > 10 µM | > 10 µM | > 10 µM | > 10 µM | > 10 µM | 0 | 0 | 0 | 0.9 | 0.4 |
| Nc1nc(CC(=O)Nc2ccc(CCNC[C@H](O)c3ccccc3)cc2)cs1 [mirabegron] | 104% | 96.6% | 104% | 93.2% | 102% | 99.1% | 96.3% | 101% | 93.2% | 103% | 102% | 98.2% | 93.6% | 102% | 97.5% | 93.8% | 97% | 100% | 110% | 108% | 99.8% | 100% | 97.7% | 108% | 92.2% | > 10 µM | > 10 µM | > 10 µM | > 10 µM | > 10 µM | 0 | 0 | 0 | 0 | 0 |
| O=C(NCCN1CCOCC1)c1ccc(Cl)cc1 [moclobemide] | 99.4% | 94.4% | 108% | 98.3% | 103% | 98.5% | 93.3% | 98.5% | 95.9% | 110% | 92.6% | 98.9% | 96.3% | 103% | 106% | 93.5% | 103% | 92.9% | 103% | 106% | 88.4% | 99.2% | 90.7% | 88.9% | 94.1% | > 10 µM | > 10 µM | > 10 µM | > 10 µM | > 10 µM | 0 | 0 | 0 | 0 | 0 |
| CCCCCCCCCCCCCCCCCC(=O)OCC(O)CO (stereo not given) [monostearin] | 104% | 103% | 97.1% | 96.5% | 102% | 99.9% | 106% | 96.3% | 99.5% | 100% | 97.8% | 96.5% | 92% | 104% | 93.8% | 103% | 101% | 83.9% | 105% | 94.8% | 100% | 96.9% | 89.6% | 100% | 96.9% | > 10 µM | > 10 µM | > 10 µM | > 10 µM | > 10 µM | 0 | 0 | 0 | 0 | 0 |
| C=CCN1CC[C@]23c4c5ccc(O)c4O[C@H]2[C@@H](OCCOCCOCCOCCOCCOCCOCCOC)CC[C@@]3(O)[C@H]1C5 [naloxegol] | 99.8% | 94% | 97.8% | 93.6% | 107% | 101% | 96.7% | 103% | 97.5% | 105% | 93.9% | 99.1% | 95% | 98.8% | 96.5% | 97.1% | 107% | 91.7% | 101% | 88.7% | 107% | 97.9% | 98.5% | 104% | 105% | > 10 µM | > 10 µM | > 10 µM | > 10 µM | > 10 µM | 0 | 0 | 0 | 0 | 0 |
| CCN(CC)CCOC(=O)C1(c2ccc([N+](=O)[O-])cc2)CCCC1 [nitrocaramiphen] | 107% | 97.2% | 103% | 108% | 102% | 104% | 92.9% | 97.2% | 102% | 106% | 95.5% | 102% | 95.4% | 94.8% | 98.5% | 90% | 95.7% | 96.5% | 94% | 98.2% | 103% | 90.1% | 98.3% | 106% | 101% | > 10 µM | > 10 µM | > 10 µM | > 10 µM | > 10 µM | 0 | 0 | 0 | 0 | 0 |
| CCn1cc(C(=O)O)c(=O)c2cc(F)c(N3CCNCC3)cc21 [norfloxacin] | 100% | 98.5% | 102% | 100% | 101% | 93.1% | 99.3% | 94.8% | 94.1% | 104% | 100% | 99.1% | 97.9% | 104% | 105% | 93.9% | 83.9% | 92.2% | 91.3% | 104% | 104% | 93.9% | 96.1% | 106% | 103% | > 10 µM | > 10 µM | > 10 µM | > 10 µM | > 10 µM | 0 | 0 | 0 | 0 | 0 |
| CCCCCCCC/C=C\CCCCCCCC(=O)NCc1ccc(O)c(OC)c1 [olvanil] | 96.3% | 97.2% | 104% | 94.3% | 96.5% | 102% | 101% | 95.5% | 103% | 101% | 102% | 98.1% | 95.8% | 95.9% | 91% | 100% | 95% | 101% | 118% | 94.4% | 97.2% | 100% | 98% | 94.3% | 100% | > 10 µM | > 10 µM | > 10 µM | > 10 µM | > 10 µM | 0 | 0 | 0 | 0 | 0 |
| O=C(Nc1cc(Cl)cc(Cl)c1O)c1c(O)c(Cl)cc(Cl)c1Cl [oxyclozanide] | 105% | 99.2% | 96.4% | 98% | 101% | 95% | 98.6% | 96.2% | 101% | 95.4% | 98.7% | 97.6% | 97.8% | 100% | 97.2% | 107% | 90.4% | 104% | 88.7% | 103% | 98.4% | 106% | 91.7% | 91.9% | 97.4% | > 10 µM | > 10 µM | > 10 µM | > 10 µM | > 10 µM | 0 | 0 | 0 | 0 | 0 |
| CN1CCCN=C1COC(=O)C(O)(c1ccccc1)C1CCCCC1 (stereo not given) [oxyphencyclimine] | 93.6% | 102% | 105% | 91.3% | 92.2% | 103% | 104% | 100% | 91.7% | 91.8% | 97.2% | 101% | 94.6% | 97.3% | 93% | 93% | 102% | 102% | 98.8% | 94.7% | 99.8% | 99.3% | 100% | 106% | 102% | > 10 µM | > 10 µM | > 10 µM | > 10 µM | > 10 µM | 0 | 0 | 0 | 0 | 0 |
